Assay results: patent US3957978A, “Phosphonium anti-parasitics” (American Cyanamid Company, priority 1975, dated 1976)

Test system: Nematospiroides dubius
Assay: Evaluation (Efficacy) Test in Mice, Nematospiroides dubius
Format: in vivo
Settings: Heligmosomoides polygyrus, po, read-out: % Efficacy N.d.; for inhibition in vivo at 0.025 %: 0.025 % diet
From the text: The primary target parasite of this test is Nematospiroides dubius (Family: Heligmosomidae), which is phylogenetically related to certain economically important parasites of domestic and farm animals. Mice are orally inoculated with 20 to 30 infective N. dubius larvae. Mixed infections are obtained by subsequent inoculation with Aspicularis tetraptera and Hymenolepis nana. Eighteen days after inoculation the mice are divided into groups of four. Each group receives one compound at a specified dose rate, either as a single gavage dose or fed continually in the feed. Four groups of five mice each are utilized as infected, untreated controls. […] Those mice receiving single oral doses (SOD) or a single subcutaneous injection (Sc) of 5 mg./kg. to 100 mg./kg. of animal body weight of the compound under test are treated 22 days after inoculation. Eight days after start of treatment (drug diet) and 4 days post treatment (single dose SOD or Sc), the mice are necropsied, the worms recovered and counted. Percent efficacy for Nematospiroides is calculated using the formula: % Efficacy Equals [formula]
The diet used in the test procedures is a standard commercial mouse chow containing meat and bone meal, dried skimmed milk, wheat germ meal, fish meal, animal liver meal, dried beet pulp, ground extended corn, oat middlings, soybean meal, dehydrated alfalfa meal, cane molasses. animal fat preserved with BHA, vitamin B-12 supplement, calcium panthotenate, choline chloride, folic acid, riboflavin supplement, brewer's dried yeast, thiamine, niacin, vitamin A supplement, D activated plant sterol, vitamin E supplement, dicalcium phosphate, iodized salt, ferric ammonium citrate, iron oxide, manganous oxide, cobalt carbonate, copper oxide and zinc oxide; and the desired level of test compound.
When the drug is administered as a single oral dose, the drug is weighed and suspended in 0.2% agar, thoroughly mixed and orally introduced at the required volume.

| SMILES | inhibition in vivo at 0.0125 % (168 h, drug diet, 0.0125 % diet, 7 days) [%] | inhibition in vivo at 0.025 % (168 h, drug diet, 7 days) [%] | inhibition in vivo at 10 mg/kg (single oral dose, 10 mg/kg) [%] | inhibition in vivo at 25 mg/kg (single oral dose) [%] | inhibition in vivo at 50 mg/kg (single oral dose) [%] | inhibition in vivo at 0.05 % (168 h, drug diet, 0.05 % diet, 7 days) [%] | inhibition in vivo at 100 mg/kg (single oral dose, 100 mg/kg) [%] |
| --- | --- | --- | --- | --- | --- | --- | --- |
| C=CCC(=P(c1ccccc1)(c1ccccc1)c1ccccc1)[P+](c1ccccc1)(c1ccccc1)c1ccccc1 [Type II, R2 Allyl, X Br] | 33 | 100 | 60 | 86 | 100 | – | – |
| Cc1ccc([P+](C[P+](c2ccccc2)(c2ccccc2)c2ccccc2)(c2ccccc2)c2ccccc2)cc1 [P,P,P,P',P'-Pentaphenyl P'-p-tolyl-P,P' Methylenediphosphonium Dibromide] | – | 60 | – | 57 | 64 | 80 | 77 |
